Article PMC2790607, “Finding of the Low Molecular Weight Inhibitors of Resuscitation Promoting Factor Enzymatic and Resuscitation Activity” (PLoS ONE, 2009)
≈ marks a conversion by molar mass, not a printed value. Where two headings read alike, the source gives them in different places.

Columns and labels:
[1] = tested on: M. tuberculosis "non-culturable" cells; format: cell-based, Mycobacterium tuberculosis; conditions: for effect on resuscitation of M. tuberculosis "non-culturable" cells: 10 µg/ml, MPN assay, versus untreated resuscitating cells; for MPN, logarithmic transformation of cell concentration (cells/ml): inhibitor 10 µg/ml
ΔDUFRpf B = ΔDUFRpf B (Mycobacterium tuberculosis, UniProt P9WG29); format: binding, M. tuberculosis
ΔDUFRpf B, sequence (P9WG29 whole entry, looked up, stated change not applied): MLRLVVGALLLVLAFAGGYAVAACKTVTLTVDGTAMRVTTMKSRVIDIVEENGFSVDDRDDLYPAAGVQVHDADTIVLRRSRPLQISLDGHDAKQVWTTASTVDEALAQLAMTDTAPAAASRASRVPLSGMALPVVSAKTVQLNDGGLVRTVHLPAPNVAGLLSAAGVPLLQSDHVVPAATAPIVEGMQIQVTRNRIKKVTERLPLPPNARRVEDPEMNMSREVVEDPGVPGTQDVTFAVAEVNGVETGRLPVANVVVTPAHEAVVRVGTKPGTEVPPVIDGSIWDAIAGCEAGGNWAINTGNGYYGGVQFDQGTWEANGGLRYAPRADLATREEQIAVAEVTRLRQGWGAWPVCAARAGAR

Micrococcus luteus = assay: microbe, parasite or virus in culture; format: cell-based; conditions: for effect on M. luteus growth: NB liquid medium; for MIC: Micrococcus luteus, lowest concentration which suppresses growth, determined during 24 hours, NI = no inhibition was observed
[2] = tested on: M. smegmatis "non-culturable" cells; format: cell-based, Mycobacterium smegmatis; conditions: MPN assay
M. smegmatis = format: cell-based, Mycobacterium smegmatis; conditions: at 0.1–1 µg/ml (not shown)
Rpf Sm = target: T1, Rpf Sm (Micrococcus luteus, UniProt O86308); assay: Muralytic activity of Rpf, 4-MUF-3-NAG hydrolysis; format: biochemical, M. luteus
T1 construct: His-tag (inferred from the pET19b vector and the Ni2+-chelation purification); made in house; host or cells: E. coli HSM174 (DE3)
T1 sequence (O86308 42-134): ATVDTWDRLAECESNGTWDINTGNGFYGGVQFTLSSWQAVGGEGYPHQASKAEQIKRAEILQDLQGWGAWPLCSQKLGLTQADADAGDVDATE
Protocol: The truncated form of M.luteus Rpf (RpfSm) was used for the analysis. The truncated protein contained conserved Rpf domain and additional 20 amino acids of the gene product, corresponding to the following amino acid sequence:
To determine a muralytic activity of the recombinant Rpfs', 4-methylumbelliferyl-β-D-N, N′, N″-triacetylchitotrioside (4-MUF-3-NAG) (“Sigma”, Germany) was applied. […] A number of experiments were performed in the presence of NPT compounds, in concentration range of 0.5–10 µg/ml. After 3 hours of incubation at 37°C, 2 µl of 10 M NaOH was added and the samples were frozen and kept at −20°C. […] The intensity of fluorescence was detected by the RF-5301PC fluorimeter (“SHIMADZU”, Japan) using excitation wavelength of 364 nm and a read-out of 448 nm.

Trypsin(3.4.21.4) = assay: Trypsin activity (fluorimetric); format: biochemical; conditions: control 10
Protocol: (§1) Alcoholdehydrohenase(1.1.1.1) activity: ADH was dissolved in 50 mM phospahe buffer pH 7 at the concentration 10 µg/ml. The rate of the reaction was judged by transformation of NAD^+ (1 mM) into NADH+H^+. As the substrate ethanol was used. Activity was measured by OD340. Laccase(1.10.3.2) activity: Laccase was dissolved in the 50 mM citrate-phosphate buffer, pH4.5 at concentration 9 µg/ml. Pyrocatechin was used at concentration 11 µg/ml. Activity was measured by OD410. Trypsin(3.4.21.4) activity: The enzyme at concentration 8.0 µg/ml was dissolved in 50 mM Tris-HCl buffer pH 8.0. Concentration of the substrate (N-CBz-Gly-Gly-Arg-β-naphthylamide - Sigma-Aldrich)- 11 µg/ml. Registration of the kinetic curves was made fluorimetrically - excitation wavelength - 330 nm; emission - 420 nm. (0.02 MB DOC) Click here for additional data file.

[3] = tested on: Alcoholdehydrohenase(1.1.1.1); assay: Alcoholdehydrogenase activity (NAD+ to NADH, OD340); format: biochemical; conditions: control 1.7
Protocol: as §1

Laccase(1.10.3.2) = assay: Laccase activity (pyrocatechin, OD410); format: biochemical; conditions: control 3.6
Protocol: as §1

[4] = pH 6.0, 3 hours at 37°C, NI = no inhibition was observed, read-out: 4-MUF-3-NAG hydrolysis IC50, Rpf Sm (converted)

Row | Structure (SMILES) | melting point [°C] | effect on resuscitation of M. tuberculosis "non-culturable" cells [1] | MPN, logarithmic transformation of cell concentration (cells/ml) ([1]; time 0 days) | MPN, logarithmic transformation of cell concentration (cells/ml) ([1]; time 14 days) | MPN, logarithmic transformation of cell concentration (cells/ml) ([1]; time 19 days) | MPN, logarithmic transformation of cell concentration (cells/ml) ([1]; time 21 days) | MPN, logarithmic transformation of cell concentration (cells/ml) ([1]; time 23 days) | MPN, logarithmic transformation of cell concentration (cells/ml) ([1]; time 27 days) | MPN, logarithmic transformation of cell concentration (cells/ml) ([1]; time 30 days) | MPN, logarithmic transformation of cell concentration (cells/ml) ([1]; time 33 days) | MPN, logarithmic transformation of cell concentration (cells/ml) ([1]; time 36 days) | MPN, logarithmic transformation of cell concentration (cells/ml) ([1]; time 40 days) | MIC (Micrococcus luteus) [µg/mL] | concentrations active in suppressing resuscitation of M. smegmatis [2] [µg/mL] | growth of active cells of M. smegmatis (M. smegmatis) | IC50 (Rpf Sm) [µM] | IC50 (Rpf Sm; [4]) [µM] | further results
1 | N#CSc1ccc(C(=O)O)cc1[N+](=O)[O-] [VIII, 3-Nitro-4-thiocyanatobenzoic acid] | 220 to 224 | had no influence on the resuscitation kinetics | – | – | – | – | – | – | – | – | – | – | – | – | – | – | – | interaction with the buried tryptophanes of ΔDUFRpfB (ΔDUFRpf B; fluorescence studies): doesn't interact with the buried tryptophanes; effect on M. luteus growth (Micrococcus luteus): had no effect on M. luteus growth; effect on resuscitation of M. smegmatis "non-culturable" cells ([2]; inhibitors at 1 µg/ml, 2 weeks at 37°C): failure
2 | COC(=O)c1ccc(SC#N)c([N+](=O)[O-])c1 [IX, 3-Nitro-4-thiocyanatobenzoic acid methyl ester] | – | increased time which need for developing of visible growth in the MPN assay and decreased the final values of MPN | 3.48 | 3.48 | 3.48 | 3.56 | 3.96 | 4.32 | 5.66 | 5.66 | 5.66 | 5.66 | 5 to 10 (≈ 21 to 42 µM) | 0.1 to 1 | did not inhibit growth | 23.5 | – | –
3 | N#CSc1ccc(C#N)cc1[N+](=O)[O-] [V, 3-Nitro-4-thiocyanobenzonitryl] | 143 to 145 | – | 3.48 | 3.48 | 3.48 | 3.48 | 3.48 | 3.86 | 4.30 | 5.66 | 5.66 | 5.66 | 1 to 5 (≈ 4.87 to 24.4 µM) | – | – | 25.3 | – | –
4 | COc1ncnc(SC#N)c1[N+](=O)[O-] [I, 4-Methoxy-5-nitro-6-thiocyanatopyrimidine] | 54 to 56 | had no influence on the resuscitation kinetics | – | – | – | – | – | – | – | – | – | – | – | – | – | – | 25 | –
5 | N#CSc1cc(SC#N)c([N+](=O)[O-])cc1[N+](=O)[O-] [III, 1,5-Dinitro-2,4-dithiocyanatobenzene] | 78 to 80 | practically did not influence resuscitation | 3.48 | 3.48 | 3.86 | 4.63 | 4.63 | 5.66 | 6.38 | 6.38 | 6.38 | 6.38 | 5 (≈ 17.7 µM) | 0.1 to 1 | did not inhibit growth | – | 4.25 | τ1/2, time needed to achieve a 50% level of substrate conversion, Trypsin (Trypsin(3.4.21.4); compound 4 µg/ml): 10 s; τ1/2, time needed to achieve a 50% level of substrate conversion, Trypsin (Trypsin(3.4.21.4); compound 10 µg/ml): 10 s; τ1/2, time needed to achieve a 50% level of substrate conversion, Alchoholdehydrohenase ([3]; compound 4 µg/ml): 1.7 s; τ1/2, time needed to achieve a 50% level of substrate conversion, Alchoholdehydrohenase ([3]; compound 10 µg/ml): 1.7 s; τ1/2, time needed to achieve a 50% level of substrate conversion, Laccase (Laccase(1.10.3.2); compound 4 µg/ml): 3.6 s; τ1/2, time needed to achieve a 50% level of substrate conversion, Laccase (Laccase(1.10.3.2); compound 10 µg/ml): 3.5 s
6 | CC(C)Nc1ncnc(SC#N)c1[N+](=O)[O-] [II, 4-Isopropylamino-5-nitro-6-thiocyanatopyrimidine] | 96 to 98 | – | – | – | – | – | – | – | – | – | – | – | – | – | – | – | – | effect on M. luteus growth (Micrococcus luteus): had no effect on M. luteus growth
7 | N#CSc1ccc(C(F)(F)F)cc1[N+](=O)[O-] [IV, 2-Nitro-4-(trifluoromethyl)-phenylthiocyanate] | 78 to 81 | increased time which need for developing of visible growth in the MPN assay and decreased the final values of MPN | 3.48 | 3.48 | 3.56 | 3.96 | 4.36 | 5.38 | 5.66 | 5.66 | 5.66 | 5.66 | 5 (≈ 20.1 µM) | 0.1 to 1 | did not inhibit growth | – | 21.4 | –
8 | CC(=O)c1ccc(SC#N)c([N+](=O)[O-])c1 [VI, 4-Acetyl-2-nitrophenyl thiocyanate] | 96 to 98 | – | 3.48 | 3.48 | 3.48 | 3.48 | 3.56 | 3.96 | 4.66 | 5.38 | 5.97 | 6.18 | 5 (≈ 22.5 µM) | – | – | 9.9 | – | –
9 | [I-].[K+] [iodide, reference compound] | – | – | – | – | – | – | – | – | – | – | – | – | – | – | – | – | – | accessible fraction of ΔDUFRpfB tryptophanes (fa) (ΔDUFRpf B; modified Stern-Volmer equation, excitation 280 nm, emission 340 nm): ~40%
10 | CCOC(=O)c1ccc(SC#N)c([N+](=O)[O-])c1 [X, 3-nitro-4-thiocyanatobenzoic acid ethyl ester] | – | increased time which need for developing of visible growth in the MPN assay and decreased the final values of MPN | 3.48 | 3.48 | 3.48 | 3.48 | 3.48 | 4.36 | 4.97 | 5.38 | 5.38 | 5.38 | 10 (≈ 39.6 µM) | – | – | – | 10.3 | –
